For six compounds, Ki results are on record in ChEMBL document CHEMBL1132473 (J Med Chem, 1999).

As a reminder, the Ki is a dissociation constant, usually derived from enzyme kinetics or from competition with a known ligand. Read a low Ki as higher affinity.

SMILES strings stand for the structures.

The target in the assay is 4-aminobutyrate aminotransferase, mitochondrial (Sus scrofa, UniProt P80147). In words: Compound was tested for the inhibition of Gamma-amino-N-butyrate transaminase (GABA-AT).
Chain of 4-aminobutyrate aminotransferase, mitochondrial (P80147 whole entry): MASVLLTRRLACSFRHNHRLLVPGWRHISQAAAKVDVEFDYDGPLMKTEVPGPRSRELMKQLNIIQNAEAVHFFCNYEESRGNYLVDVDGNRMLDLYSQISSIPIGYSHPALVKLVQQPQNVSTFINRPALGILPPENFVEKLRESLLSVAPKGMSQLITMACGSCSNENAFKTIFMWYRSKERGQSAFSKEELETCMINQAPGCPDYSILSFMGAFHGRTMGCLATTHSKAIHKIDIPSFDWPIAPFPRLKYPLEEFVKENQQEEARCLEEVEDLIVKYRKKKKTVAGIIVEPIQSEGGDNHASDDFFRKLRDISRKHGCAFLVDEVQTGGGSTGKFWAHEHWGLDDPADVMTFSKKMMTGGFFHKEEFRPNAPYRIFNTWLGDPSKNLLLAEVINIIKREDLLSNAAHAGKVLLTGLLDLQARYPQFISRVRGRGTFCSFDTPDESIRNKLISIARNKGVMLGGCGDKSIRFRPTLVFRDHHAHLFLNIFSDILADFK

For the compound `N[C@@H]1CC=C(C(=O)O)C1`, the affinity corresponds to a Ki of 1.2 mM.
For the compound `N[C@H]1CC=C(C(=O)O)C1`, the affinity, expressed as Ki, was 72 mM.
To `N[C@@H]1C=C[C@@H](C(=O)O)C1` belongs 38 mM.
To `NC1C=CC(C(=O)O)C1` (racemic) belongs 0.6 mM; to `N[C@@H]1C=C[C@H](C(=O)O)C1`, 0.052 mM.
Consider `N[C@H]1C=C[C@@H](C(=O)O)C1`, for which the Ki worked out at 2.7 mM.
